Patent publication US20140357655A1, “SPIROINDOLINE DERIVATIVES AS GONADOTROPIN- RELEASING HORMONE RECEPTOR ANTAGONISTS” (Bayer Intellectual Property GmbH, priority 2012, published 2014)

What follows are compounds tested against T1, human GnRH receptor (Homo sapiens, UniProt P30968) (assay: IP-One HTRF assay with buserelin (at EC80) stimulation). Details: CHO cells stably expressing human GnRH receptor, read-out: Potency in IP-One HTRF assay, given as IC50.
T1 sequence (P30968 1-328): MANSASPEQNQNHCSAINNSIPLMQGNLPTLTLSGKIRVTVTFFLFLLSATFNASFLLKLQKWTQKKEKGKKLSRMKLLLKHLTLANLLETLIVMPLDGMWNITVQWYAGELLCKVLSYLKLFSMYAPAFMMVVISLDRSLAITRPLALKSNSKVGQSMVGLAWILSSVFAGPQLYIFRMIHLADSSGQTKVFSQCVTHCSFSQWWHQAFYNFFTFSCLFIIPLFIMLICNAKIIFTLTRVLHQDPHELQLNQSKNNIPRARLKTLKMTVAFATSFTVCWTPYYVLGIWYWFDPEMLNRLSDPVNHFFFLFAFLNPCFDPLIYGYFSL
Type: cell-based
Outline: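 Ten-point duplicate titrations (20 μM to 1 nM) were fitted by 4-parameter model to normalized 665/620 nm HTRF ratios, 0% = no compound, 100% = no agonist. Assay measured IP1 accumulation in human GnRH-R CHO cells stimulated 1 h at 37° C with EC80 buserelin, then lysed 1 h at 22° C.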

Row | SMILES | IC50 [nM]
1 | O=C(NCc1ccccc1Cl)c1ccc2c(c1)C1(CCS(=O)(=O)CC1)C(C1CC1)N2S(=O)(=O)c1cccc(OC(F)(F)F)c1 (centres unmarked) [Example 81, N-(2-chlorobenzyl)-2-cyclopropyl-1-{[3-(trifluoromethoxy)phenyl]sulfonyl}-1,2,2′,3′,5′,6′-hexahydrospiro[indole-3,4′-thiopyran]-5-carboxamide 1′,1′-dioxide] | 437
2 | COC(=O)c1cccc(NC(=O)c2ccc3c(c2)C2(CCS(=O)(=O)CC2)C(C2CC2)N3S(=O)(=O)c2cccc(OC(F)(F)F)c2)c1 (centres unmarked) [Example 82, methyl 3-{[(2-cyclopropyl-1′,1′-dioxido-1-{[3-(trifluoromethoxy)phenyl]sulfonyl}-1,2,2′,3′,5′,6′-hexahydrospiro[indole-3,4′-thiopyran]-5-yl)carbonyl]amino}benzoate] | 609
3 | O=C(O)c1cccc(NC(=O)c2ccc3c(c2)C2(CCS(=O)(=O)CC2)C(C2CC2)N3S(=O)(=O)c2cccc(OC(F)(F)F)c2)c1 (centres unmarked) [Example 83, 3-{[(2-cyclopropyl-1′,1′-dioxido-1-{[3-(trifluoromethoxy)phenyl]sulfonyl}-1,2,2′,3′,5′,6′-hexahydrospiro[indole-3,4′-thiopyran]-5-yl)carbonyl]amino}benzoic acid] | 140
4 | O=C(NCc1ncccc1C(F)(F)F)c1ccc2c(c1)C1(CCS(=O)(=O)CC1)C(C1CC1)N2S(=O)(=O)c1cccc(OC(F)(F)F)c1 (centres unmarked) [Example 84, 2-cyclopropyl-1-{[3-(trifluoromethoxy)phenyl]sulfonyl)-N-{[3-(trifluoromethyl)pyridin-2-yl]methyl}-1,2,2′,3′,5′,6′-hexahydrospiro[indole-3,4′-thiopyran]-5-carboxamide 1′,1′-dioxide] | 309
5 | Cc1cncc(NC(=O)c2ccc3c(c2)C2(CCS(=O)(=O)CC2)C(C2CC2)N3S(=O)(=O)c2cccc(OC(F)(F)F)c2)c1 (centres unmarked) [Example 85, 2-cyclopropyl-N-(5-methylpyridin-3-yl)-1-{[3-(trifluoromethoxy)phenyl]sulfonyl}-1,2,2′,3′,5′,6′-hexahydrospiro[indole-3,4′-thiopyran]-5-carboxamide 1′,1′-dioxide] | 804
6 | O=C(NCc1ccccc1Cl)c1ccc2c(c1)C1(CCS(=O)(=O)CC1)C(C1CC1)N2S(=O)(=O)c1cccc(OC(F)F)c1 (centres unmarked) [Example 86, N-(2-chlorobenzyl)-2-cyclopropyl-1-{[3-(difluoromethoxy)phenyl]sulfonyl}-1,2,2′,3′,5′,6′-hexahydrospiro[indole-3,4′-thiopyran]-5-carboxamide 1′,1′-dioxide] | 196
7 | O=C(NCc1ncccc1C(F)(F)F)c1ccc2c(c1)C1(CCS(=O)(=O)CC1)C(C1CC1)N2S(=O)(=O)c1cccc(OC(F)F)c1 (centres unmarked) [Example 87, 2-cyclopropyl-1-{[3-(difluoromethoxy)phenyl]sulfonyl}-N-{[3-(trifluoromethyl)pyridin-2-yl]methyl}-1,2,2′,3′,5′,6′-hexahydrospiro[indole-3,4′-thiopyran]-5-carboxamide 1′,1′-dioxide] | 143
8 | O=C(Nc1cncc(Cl)c1)c1ccc2c(c1)C1(CCS(=O)(=O)CC1)C(C1CC1)N2S(=O)(=O)c1cccc(OC(F)F)c1 (centres unmarked) [Example 88, N-(5-chloropyridin-3-yl)-2-cyclopropyl-1-{[3-(difluoromethoxy)phenyl]sulfonyl}-1,2,2′,3′,5′,6′-hexahydrospiro[indole-3,4′-thiopyran]-5-carboxamide 1′,1′-dioxide] | 262
9 | COC(=O)c1cccc(NC(=O)c2ccc3c(c2)C2(CCS(=O)(=O)CC2)C(C2CC2)N3S(=O)(=O)c2cccc(OC(F)F)c2)c1 (centres unmarked) [Example 89, methyl 3-{[(2-cyclopropyl-1-{[3-(difluoromethoxy)phenyl]sulfonyl}-1′,1′-dioxido-1,2,2′,3′,5′,6′-hexahydrospiro[indole-3,4′-thiopyran]-5-yl)carbonyl]amino}benzoate] | 134
10 | O=C(NCc1ccccc1C(F)F)c1ccc2c(c1)C1(CCS(=O)(=O)CC1)C(C1CC1)N2S(=O)(=O)c1ccc(OC(F)F)cc1 (centres unmarked) [Example 91, 2-cyclopropyl-1-{[4-(difluoromethoxy)phenyl]sulfonyl}-N-[2-(difluoromethyl)benzyl]-1,2,2′,3′,5′,6′-hexahydrospiro[indole-3,4′-thiopyran]-5-carboxamide 1′,1′-dioxide] | 5.9
11 | O=C(NCc1ccccc1C(F)(F)F)c1ccc2c(c1)C1(CCS(=O)(=O)CC1)C(C1CC1)N2S(=O)(=O)c1ccc(OC(F)F)cc1 (centres unmarked) [Example 92, 2-cyclopropyl-1-{[4-(difluoromethoxy)phenyl]sulfonyl}-N-[2-(trifluoromethyl)benzyl]-1,2,2′,3′,5′,6′-hexahydrospiro[indole-3,4′-thiopyran]-5-carboxamide 1′,1′-dioxide] | 31
12 | O=C(NCc1ncccc1C(F)(F)F)c1ccc2c(c1)C1(CCS(=O)(=O)CC1)C(C1CC1)N2S(=O)(=O)c1ccc(OC(F)F)cc1 (centres unmarked) [Example 93, 2-cyclopropyl-1-{[4-(difluoromethoxy)phenyl]sulfonyl}-N-{[3-(trifluoromethyl)pyridin-2-yl]methyl}-1,2,2′,3′,5′,6′-hexahydrospiro[indole-3,4′-thiopyran]-5-carboxamide 1′,1′-dioxide] | 53
13 | NC(=O)c1ccc(S(=O)(=O)N2c3ccc(C(=O)NCc4ccccc4Cl)cc3C3(CCS(=O)(=O)CC3)C2C2CC2)cc1 (centres unmarked) [Example 94, 1-[(4-carbamoylphenyl)sulfonyl]-N-(2-chlorobenzyl)-2-cyclopropyl-1,2,2′,3′,5′,6′-hexahydrospiro[indole-3,4′-thiopyran]-5-carboxamide 1′,1′-dioxide] | 222
14 | CN1CCCC1=NS(=O)(=O)c1cccc(NC(=O)c2ccc3c(c2)C2(CCS(=O)(=O)CC2)C(C2CC2)N3S(=O)(=O)c2ccc(C(N)=O)cc2)c1 (centres unmarked) [Example 95, 1-[(4-carbamoylphenyl)sulfonyl]-2-cyclopropyl-N-{3-[(1-methylpyrrolidin-2-ylidene)sulfamoyl]phenyl}-1,2,2′,3′,5′,6′-hexahydrospiro[indole-3,4′-thiopyran]-5-carboxamide 1′,1′-dioxide] | 225
15 | NC(=O)c1ccc(S(=O)(=O)N2c3ccc(C(=O)Nc4cccc(S(=O)(=O)Nc5nccs5)c4)cc3C3(CCS(=O)(=O)CC3)C2C2CC2)cc1 (centres unmarked) [Example 96, 1-[(4-carbamoylphenyl)sulfonyl]-2-cyclopropyl-N-[3-(1,3-thiazol-2-ylsulfamoyl)phenyl]-1,2,2′,3′,5′,6′-hexahydrospiro[indole-3,4′-thiopyran]-5-carboxamide 1′,1′-dioxide] | 484
16 | O=C(Nc1ccc2c(c1)C1(CCS(=O)(=O)CC1)C(C1CC1)N2S(=O)(=O)c1ccc(F)cc1)C1CC1 (centres unmarked) [Example 97, N-{2-Cyclopropyl-1-[(4-fluorophenyl)sulfonyl]-1′,1′-dioxido-1,2,2′,3′,5′,6′-hexahydrospiro[indole-3,4′-thiopyran]-5-yl}cyclopropanecarboxamide] | 2230
17 | O=C(Nc1ccc2c(c1)C1(CCS(=O)(=O)CC1)C(C1CC1)N2S(=O)(=O)c1ccc(F)cc1)C1CCCCC1 (centres unmarked) [Example 98, N-{2-cyclopropyl-1-[(4-fluorophenyl)sulfonyl]-1′,1′-dioxido-1,2,2′,3′,5′,6′-hexahydrospiro[indole-3,4′-thiopyran]-5-yl}cyclohexanecarboxamide] | 39
